In PMC11784839, “Monoaminergic neurotransmitters are bimodal effectors of tau aggregation” (Science Advances, 2025):

Molecular target: tau (Homo sapiens, UniProt P10636)
Test: MCE Phenols Library screening, tau biosensor cell seeding assay (AvZ)
Type: cell-based
Details: for AvZ (average z score of seeding, SDs from the mean level of seeding): 10 μM phenol in cell cultures, AD brain homogenate preincubated 16 hours, two biological replicates, positive = catalyzes seeding, negative = inhibits; for Z repl 1 / Z Repl 2: Z score; for Z repl 1 / raw data 1: replicate 1; for Z Repl 2 / raw data 2: replicate 2
[1] = average puncta of the two replicates
[2] = average Z score of two replicates, Phenols Library screen
[3] = average Z score of the two replicates, MCE Phenols Library screen
[4] = average Z score of the two replicates, tau seeding

Chain of tau (P10636 623-695 limits assumed): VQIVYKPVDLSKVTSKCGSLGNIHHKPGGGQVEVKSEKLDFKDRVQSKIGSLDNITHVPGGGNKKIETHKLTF

Compound | AvZ (average z score of seeding, SDs from the mean level of seeding) | Z repl 1 | Z Repl 2 | av puncta [1] | raw data 1 (raw puncta) | raw data 2 (raw puncta) | av Z [2] | av puncta (average of raw data 1 and 2) | raw data 1 (puncta) | raw data 2 (puncta) | av Z [3] | av Z [4]
COc1cc(CNC(=O)CCCC/C=C/C(C)C)ccc1O [Capsaicin, reference compound] | -0.318 | 0.025 | -0.661 | 16179.6 | 26653.4 | 5705.75 |  |  |  |  |  | 
COc1cc(O)cc(O)c1C(=O)/C=C/c1ccccc1 [Cardamonin] |  | -0.394 | 0.139 |  |  |  | -0.127 | 17936.7 | 21621.9 | 14251.5 |  | 
CC(C)c1cc2c(c(O)c1O)[C@@]13CCCC(C)(C)[C@@H]1C[C@@H]2OC3=O [Carnosol] |  | 0.436 | -0.449 |  |  |  | -0.006 | 19780.5 | 31586 | 7974.93 |  | 
Cc1ccc(C(C)C)cc1O [Carvacrol] | 0.979 | 0.54 | 1.419 |  |  |  |  | 30376.1 | 32834.5 | 27917.7 |  | 
Oc1cc(O)c2c(c1)O[C@H](c1ccc(O)c(O)c1)[C@@H](O)C2 [Catechin] |  | -0.542 | -0.523 | 13513.8 |  |  |  |  | 19846.5 | 7181.16 | -0.532 | 
CC[C@H]1CN2CCc3cc(OC)c(OC)cc3[C@@H]2C[C@@H]1C[C@H]1NCCc2cc(O)c(OC)cc21.Cl.Cl [Cephaeline (dihydrochloride)] |  | -0.202 | -0.66 | 14823.1 | 23925.6 | 5720.59 |  |  |  |  | -0.431 | 
O=C(O)C[C@@H]1C(=O)O[C@H]2[C@@H]3OC(=O)c4cc(O)c(O)c(O)c4-c4c(cc(O)c(O)c4O)C(=O)OC[C@H]2O[C@@H](OC(=O)c2cc(O)c(O)c(O)c2)[C@@H]3OC(=O)c2cc(O)c(O)c3c2[C@H]1[C@H](O)C(=O)O3 [Chebulagic acid] |  | -2.151 |  |  |  |  |  | 382.845 | 523.863 | 241.827 | -1.662 | 
O=C(O)C[C@H](C(=O)O)[C@H]1c2c(cc(O)c(O)c2O)C(=O)O[C@@H]1C(=O)O [Chebulic acid] |  | -1.01 |  |  |  |  |  | 7230.09 | 14229.4 | 230.797 | -1.092 | 
O=C(O)C[C@@H]1C(=O)O[C@H]2[C@H](OC(=O)c3cc(O)c(O)c(O)c3)[C@@H](OC(=O)c3cc(O)c(O)c4c3[C@H]1[C@H](O)C(=O)O4)[C@H](OC(=O)c1cc(O)c(O)c(O)c1)O[C@@H]2COC(=O)c1cc(O)c(O)c(O)c1 [Chebulinic acid] |  | -2.186 | -1.184 |  |  |  |  | 117.372 | 108.91 | 125.835 | -1.685 | 
O=C(/C=C/c1ccc(O)c(O)c1)O[C@@H]1C[C@](O)(C(=O)O)C[C@@H](O)[C@H]1O [Chlorogenic acid] |  | 0.232 | -0.247 |  |  |  | -0.007 | 19631.7 | 29136 | 10127.4 |  | 
O=C(O)[C@H]1O[C@@H](Oc2cc(O)c3c(=O)cc(-c4ccccc4)oc3c2)[C@H](O)[C@@H](O)[C@@H]1O [Chrysin-7-O-glucuronide] |  | 0.79 | 0.073 |  |  |  |  | 24687.2 | 35829.5 | 13544.8 |  | 0.431
COc1cc(-c2cc(=O)c3c(O)cc(O)cc3o2)ccc1O [Chrysoeriol] |  | 0.623 | -0.203 |  |  |  |  | 22210.2 | 33824.2 | 10596.2 |  | 0.21
COc1cc(-c2oc3cc(OC)c(OC)c(O)c3c(=O)c2OC)ccc1O [Chrysosplenetin] |  | 0.088 | -0.899 | 15282.9 | 27400 | 3165.82 |  |  |  |  | -0.406 | 
COc1cc(CCO[C@@H]2O[C@H](CO[C@@H]3O[C@H](CO)[C@@H](O)[C@H](O)[C@H]3O)[C@@H](OC(=O)/C=C/c3ccc(O)c(O)c3)[C@H](O[C@@H]3O[C@@H](C)[C@H](O)[C@@H](O)[C@H]3O)[C@H]2O)ccc1O [Cistanoside A] |  | -0.369 | -0.502 | 14662.2 | 21923.2 | 7401.19 |  |  |  |  | -0.435 | 
C[C@@H]1O[C@@H](OC[C@H]2O[C@@H](Oc3c(-c4ccc(O)cc4)oc4cc(O)cc(O)c4c3=O)[C@H](O[C@@H]3O[C@@H](C)[C@H](O)[C@@H](O)[C@H]3O)[C@@H](O)[C@@H]2O)[C@H](O)[C@H](O)[C@H]1O [Clitorin] |  | -0.088 | -0.968 | 13858.4 |  |  |  |  | 25288.8 | 2427.91 | -0.528 | 
O=C(/C=C/c1ccc(O)c(O)c1)N[C@@H](Cc1ccc(O)c(O)c1)C(=O)O [Clovamide] |  | -0.17 | -1.084 | 12750.8 |  |  |  |  | 24311.1 | 1190.55 | -0.627 | 
COc1cc2c(cc1O)-c1cc3ccc(OC)c(OC)c3c[n+]1CC2 [Columbamine] |  | 0.655 | 0.636 |  |  |  |  | 26887.1 | 34211.5 | 19562.6 |  | 0.646
COc1ccc2c(c1)OC[C@@H](c1cc(O)c(OC)c(OC)c1O)C2 [Colutehydroquinone] |  | 0.366 | 0.999 |  |  |  |  | 27089.5 | 30747.2 | 23431.8 |  | 0.683
COc1cc(O)c2c(=O)c(O[C@@H]3O[C@H](CO)[C@@H](O)[C@H](O)[C@H]3O)c(-c3ccc(O[C@@H]4O[C@H](CO)[C@@H](O)[C@H](O)[C@H]4O)cc3)oc2c1 [Complanatuside] |  | -0.533 | -0.238 | 15089 | 19953.5 | 10224.5 |  |  |  |  | -0.385 | 
COc1cc(/C=C/CO)ccc1O [Coniferyl alcohol] | 0.529 | 0.738 | 0.319 |  |  |  |  | 25693.5 | 35213 | 16173.9 |  | 
COc1cc(/C=C/COC(=O)/C=C/c2ccc(O)c(OC)c2)ccc1O [Coniferyl ferulate] |  | 0.368 | -0.434 |  |  |  | -0.033 | 19449.2 | 30768 | 8130.42 |  | 
O=C(O[C@@H]1O[C@@H]2COC(=O)c3cc(O)c(O)c(O)c3-c3c(cc(O)c(O)c3O)C(=O)O[C@H]([C@H]1O)[C@@H]2O)c1cc(O)c(O)c(O)c1 [Corilagin] |  | -1.842 | -1.134 |  |  |  |  | 2445.41 | 4240.16 | 650.661 | -1.488 | 
CC(C)=CCC/C(C)=C/Cc1cc(-c2coc3cc(O)ccc3c2=O)ccc1O [Corylifol A] |  | 0.054 | -0.445 |  |  |  | -0.196 | 17502.5 | 26996.8 | 8008.18 |  | 
COc1cc2c(cc1O)CCN1Cc3c(ccc(OC)c3OC)CC21 (stereo not shown) [Corypalmine] |  | 0.295 | -0.524 |  |  |  | -0.114 | 18532.2 | 29892.4 | 7171.93 |  | 
O=c1oc2cc(O)ccc2c2oc3cc(O)ccc3c12 [Coumestrol] |  | -0.018 | -0.542 | 16558.4 | 26137.6 | 6979.18 |  |  |  |  | -0.28 | 
